Assay results: patent US9593305B2, “Differentiation of pluripotent stem cells” (Janssen Biotech, Inc., priority 2008, dated 2017)

System: H1 human embryonic stem cells
Test: Compound 34 with growth factor combinations including GDF-8, no activin A (Example 7, Table 6)
Assay type: cell-based
Experimental: Clusters of H1 human embryonic stem cells were grown on reduced growth factor […]™ (Invitrogen; Cat #356231)-coated tissue culture plastic. Cells were passaged using collagenase (Invitrogen; Cat #17104-019) treatment and gentle scraping, washed to remove residual enzyme, and plated with even dispersal at a ratio of 1:1 (surface area) on reduced growth factor […]™-coated 96-well black plates (Packard ViewPlates; PerkinElmer; Cat #6005182) using volumes of 100 μl/well. Cells were allowed to attach as clusters and then recover log phase growth over a 1 to 3 day period, feeding daily with MEF conditioned medium supplemented with 8 ng/ml bFGF (R&D Systems; Cat #233-FB). Plates were maintained at 37° C., 5% CO2 in a humidified box throughout the duration of assay.
Stocks of growth factors purchased from R&D Systems were EGF (Cat #236-EG), FGF4 (Cat #235-F4), PDGF-A (Cat #221-AA), PDGF-D (Cat #1159-SB), PDGF-A/B (Cat #222-AB), VEGF (Cat #293-VE), and GDF-8 (Cat #788-G8). Muscimol was purchased from Tocris (Cat #0289). All growth factors were solubilized in PBS with 0.1% BSA (Sigma; Cat #A7888) and stored frozen at −80° C. Muscimol was solubilized in 100% DMSO (Sigma; Cat #D2650) and stored frozen at −80° C. Cyclic aniline-pyridinotriazine compounds were available as 5 mM stocks in 96-well plate format, solubilized in 100% DMSO and stored at −80° C. Compound 34 was further diluted to an intermediate concentration of 0.2 mM in 50 mM HEPES (Invitrogen; Cat #15630-080), 20% DMSO and stored at 4° C. All growth factors and inhibitors were prepared in a deep well, 96-well polypropylene plate, diluted to 5× intermediate stocks in DMEM:F12 base medium at the beginning of assay and stored at 4° C.
A secondary screening assay was conducted, testing in triplicate and feeding on alternate days over the four-day assay timeframe. Assays were initiated by aspirating culture medium from each well followed by three washes in PBS to remove residual growth factors and serum. […] All remaining growth factors were tested at a final assay concentration of 50 ng/ml (EGF, FGF4, PDGF-A, PDGF-A/B, VEGF) with the exception of GDF-8 tested at 25 ng/ml. Final assay concentration of muscimol was 20 μM. […]
On day 3, wells were aspirated and fed with 80 μl DMEM:F12 base medium supplemented with 2.5% FCS (HyClone) and 3.125 μM Compound 34 plus 20 μl 5× stock of growth factors or small molecules per well to yield a final concentration of 2% FCS and 2.5 μM Compound 34 (omitting Wnt3a) and as denoted on day one for all remaining growth factors or small molecules. Positive control wells (100 μl/well) contained the same base medium supplemented with 2% FCS and 100 ng/ml activin A, omitting Wnt3a. Negative control wells (100 μl/well) contained the same base medium with 2% FCS, omitting both activin A and Wnt3a.
At the conclusion of four-days of culture, assay plates were washed twice with PBS, fixed with 4% paraformaldehyde (Alexis Biochemical; Cat ALX-350-011) at room temperature for 20 minutes, then washed three times with PBS and permeabilized with 0.5% Triton X-100 (Sigma; Cat #T8760-2) for 20 minutes at room temperature. Cells were washed again three times with PBS and blocked with 4% chicken serum (Invitrogen; Cat #16110082) in PBS for 30 minutes at room temperature. Primary antibody (goat anti-human SOX17; R&D Systems; cat #AF1924) was diluted 1:100 in 4% chicken serum and added to each well for one hour at room temperature. Alexa Fluor 488 conjugated secondary antibody (chicken anti-goat IgG; Molecular Probes; Cat #AZ1467) was diluted 1:200 in PBS and added to each sample well after washing three times with PBS. To counterstain nuclei, 4 μg/ml Hoechst 33342 (Invitrogen; Cat #H3570) was added for ten minutes at room temperature. Plates were washed once with PBS and left in 100 μl/well PBS for imaging. […]

[1] = no AA (with Wnt3a), EGF + FGF4 + PDGF-A + VEGF + PDGF-D + Muscimol + GDF8
[2] = no AA (with Wnt3a), GDF8 + PDGF-D
[3] = no AA (with Wnt3a), GDF8 + PDGF-D + VEGF
[4] = no AA (with Wnt3a), GDF8 + PDGF-D + VEGF + Muscimol
[5] = no AA (with Wnt3a), GDF8 + VEGF + Muscimol
[6] = no AA (with Wnt3a), PDGF-D + Muscimol
[7] = no AA (with Wnt3a), PDGF-D + Muscimol + VEGF
[8] = no AA (with Wnt3a), PDGF-D + VEGF
[9] = no AA (with Wnt3a), VEGF + Muscimol
[10] = no AA, no Wnt3a, EGF + FGF4 + PDGF-A + VEGF + PDGF-D + Muscimol + GDF8

Compound: O=C1CCN2CCN(CC2)Cc2cc(Cl)cc(c2)Nc2ncnc(n2)-c2cncc(c2)CCCN1 [Compound 34, 5-Chloro-1,8,10,12,16,22,26,32-octaazapentacyclo[24.2.2.1˜3.7˜0.1˜9,13˜0.1˜14.18˜]tritriaconta-3(33), 4,6,9(32), 10,12,14(31), 15,17-nonaen-23-one]
- SOX17 expression (% of control) (2.5 μM Compound 34 with GDF-8 (25 ng/ml) and Wnt3a, no activin A): 88 % of control
- Cell Number, % of positive control (no AA (with Wnt3a), EGF): 85.53%
- Cell Number, Average Total Cell Number (no AA (with Wnt3a), EGF): 6145
- Sox17 Expression, % of positive control (no AA (with Wnt3a), EGF): 19.18%
- Sox17 Expression, Average Total Intensity (no AA (with Wnt3a), EGF): 1.5E+07
- Cell Number, % of positive control [1]: 83.90%
- Cell Number, Average Total Cell Number [1]: 6028
- Sox17 Expression, % of positive control [1]: 87.44%
- Sox17 Expression, Average Total Intensity [1]: 7.0E+07
- Cell Number, % of positive control (no AA (with Wnt3a), FGF4): 74.09%
- Cell Number, Average Total Cell Number (no AA (with Wnt3a), FGF4): 5323
- Sox17 Expression, % of positive control (no AA (with Wnt3a), FGF4): 33.75%
- Sox17 Expression, Average Total Intensity (no AA (with Wnt3a), FGF4): 2.7E+07
- Cell Number, % of positive control (no AA (with Wnt3a), GDF8): 88.44%
- Cell Number, Average Total Cell Number (no AA (with Wnt3a), GDF8): 6354
- Sox17 Expression, % of positive control (no AA (with Wnt3a), GDF8): 88.59%
- Sox17 Expression, Average Total Intensity (no AA (with Wnt3a), GDF8): 7.1E+07
- Cell Number, % of positive control [2]: 95.88%
- Cell Number, Average Total Cell Number [2]: 6889
- Sox17 Expression, % of positive control [2]: 72.59%
- Sox17 Expression, Average Total Intensity [2]: 5.8E+07
- Cell Number, % of positive control [3]: 77.74%
- Cell Number, Average Total Cell Number [3]: 5585
- Sox17 Expression, % of positive control [3]: 81.75%
- Sox17 Expression, Average Total Intensity [3]: 6.6E+07
- Cell Number, % of positive control [4]: 131.60%
- Cell Number, Average Total Cell Number [4]: 9455
- Sox17 Expression, % of positive control [4]: 119.24%
- Sox17 Expression, Average Total Intensity [4]: 9.6E+07
- Cell Number, % of positive control [5]: 84.67%
- Cell Number, Average Total Cell Number [5]: 6083
- Sox17 Expression, % of positive control [5]: 69.62%
- Sox17 Expression, Average Total Intensity [5]: 5.6E+07
- Cell Number, % of positive control (no AA (with Wnt3a), Muscimol): 101.41%
- Cell Number, Average Total Cell Number (no AA (with Wnt3a), Muscimol): 7286
- Sox17 Expression, % of positive control (no AA (with Wnt3a), Muscimol): 38.38%
- Sox17 Expression, Average Total Intensity (no AA (with Wnt3a), Muscimol): 3.1E+07
- Cell Number, % of positive control (no AA (with Wnt3a), PDGF-A): 58.11%
- Cell Number, Average Total Cell Number (no AA (with Wnt3a), PDGF-A): 4175
- Sox17 Expression, % of positive control (no AA (with Wnt3a), PDGF-A): 13.43%
- Sox17 Expression, Average Total Intensity (no AA (with Wnt3a), PDGF-A): 1.1E+07
- Cell Number, % of positive control (no AA (with Wnt3a), PDGF-D): 69.84%
- Cell Number, Average Total Cell Number (no AA (with Wnt3a), PDGF-D): 5017
- Sox17 Expression, % of positive control (no AA (with Wnt3a), PDGF-D): 18.76%
- Sox17 Expression, Average Total Intensity (no AA (with Wnt3a), PDGF-D): 1.5E+07
- Cell Number, % of positive control [6]: 48.57%
- Cell Number, Average Total Cell Number [6]: 3490
- Sox17 Expression, % of positive control [6]: 8.02%
- Sox17 Expression, Average Total Intensity [6]: 6.5E+06
- Cell Number, % of positive control [7]: 29.68%
- Cell Number, Average Total Cell Number [7]: 2133
- Sox17 Expression, % of positive control [7]: 3.32%
- Sox17 Expression, Average Total Intensity [7]: 2.7E+06
- Cell Number, % of positive control [8]: 70.01%
- Cell Number, Average Total Cell Number [8]: 5030
- Sox17 Expression, % of positive control [8]: 14.58%
- Sox17 Expression, Average Total Intensity [8]: 1.2E+07
- Cell Number, % of positive control (no AA (with Wnt3a), VEGF): 65.60%
- Cell Number, Average Total Cell Number (no AA (with Wnt3a), VEGF): 4713
- Sox17 Expression, % of positive control (no AA (with Wnt3a), VEGF): 12.49%
- Sox17 Expression, Average Total Intensity (no AA (with Wnt3a), VEGF): 1.0E+07
- Cell Number, % of positive control [9]: 10.81%
- Cell Number, Average Total Cell Number [9]: 776
- Sox17 Expression, % of positive control [9]: 1.56%
- Sox17 Expression, Average Total Intensity [9]: 1.3E+06
- Cell Number, % of positive control (no AA (with Wnt3a), none): 64.18%
- Cell Number, Average Total Cell Number (no AA (with Wnt3a), none): 4611
- Sox17 Expression, % of positive control (no AA (with Wnt3a), none): 17.21%
- Sox17 Expression, Average Total Intensity (no AA (with Wnt3a), none): 1.4E+07
- Cell Number, % of positive control [10]: 66.21%
- Cell Number, Average Total Cell Number [10]: 4757
- Sox17 Expression, % of positive control [10]: 48.77%
- Sox17 Expression, Average Total Intensity [10]: 3.9E+07

Compound: GDF-8: growth factor GDF-8, also known as myostatin, member of the TGF-β family
- SOX17 expression (GDF-8 25 ng/ml in any combination with Compound 34): substantial increase in SOX17 expression
